One data set relates to Abeta 1-42. Kind of data set: Cellular αLisa assay in SKNBE2 cells, Abeta 1-42. In kind it is cell-based. As to conditions: human neuroblastoma SKNBE2 expressing hAPP695, incubated for 18 hours; for IC50: Homo sapiens, SKNBE2, 18 h, read-out: Cellular αlisa assay in SKNBE2 cells Aβ42 pIC50 (converted). As for the experimental part: (§1) In two αLisa assays the levels of Abeta total and Abeta 1-42 produced and secreted into the medium of human neuroblastoma SKNBE2 cells are quantified. The assay is based on the human neuroblastoma SKNBE2 expressing the wild type Amyloid Precursor Protein (hAPP695). The compounds are diluted and added to these cells, incubated for 18 hours and then measurements of Abeta 1-42 and Abeta total are taken. Abeta total and Abeta 1-42 are measured by sandwich αLisa. αLisa is a sandwich assay using biotinylated antibody AbN/25 attached to streptavidin coated beads and antibody Ab4G8 or cAb42/26 conjugated acceptor beads for the detection of Abeta total and Abeta 1-42 respectively. In the presence of Abeta total or Abeta 1-42, the beads come into close proximity. The excitation of the donor beads provokes the release of singlet oxygen molecules that trigger a cascade of energy transfer in the acceptor beads, resulting in light emission. Light emission is measured after 1 hour incubation (excitation at […] and emission at 615 nm).
(§2) A best-fit curve is fitted by a minimum sum of squares method to the plot of %Controlmin versus compound concentration.

The subject of the next data set is Abeta total. Kind of data set: Cellular αLisa assay in SKNBE2 cells, Abeta total. In kind it is cell-based. As to conditions: human neuroblastoma SKNBE2 expressing hAPP695, incubated for 18 hours; for IC50: Homo sapiens, SKNBE2, 18 h, read-out: Cellular αlisa assay in SKNBE2 cells Aβtotal pIC50 (converted). As for the experimental part:
as §1, §2

In the next data set the target is BACE1 (Homo sapiens, UniProt P56817). Kind of data set: Biochemical FRET based assay. As to conditions: recombinant BACE1 1 μg/ml, 120 minutes at room temperature, pH 5.0; read-out: Biochemical FRET based assay pIC50 (converted). The source says:
This assay is a Fluorescence Resonance Energy Transfer Assay (FRET) based assay. The substrate for this assay is an APP derived 13 amino acids peptide that contains the ‘Swedish’ Lys-Met/Asn-Leu mutation of the amyloid precursor protein (APP) beta-secretase cleavage site. This substrate also contains two fluorophores: (7-methoxycoumarin-4-yl) acetic acid (Mca) is a fluorescent donor with excitation wavelength at 320 nm and emission at 405 nm and 2,4-Dinitrophenyl (Dnp) is a proprietary quencher acceptor. […] Upon cleavage by BACE1, the fluorophore Mca is separated from the quenching group Dnp, restoring the full fluorescence yield of the donor. The increase in fluorescence is linearly related to the rate of proteolysis.
Briefly in a 384-well format recombinant BACE1 protein in a final concentration of 1 μg/ml is incubated for 120 minutes at room temperature with 10 μm substrate in incubation buffer (40 mM Citrate buffer pH 5.0, 0.04% PEG, 4% DMSO) in the absence or presence of compound. Next the amount of proteolysis is directly measured by fluorescence measurement at T=0 and T=120 (excitation at 320 nm and emission at 405 nm). Results are expressed in RFU (relative fluorescence units), as difference between T120 and T0.

Chain of BACE1 (P56817 46-501): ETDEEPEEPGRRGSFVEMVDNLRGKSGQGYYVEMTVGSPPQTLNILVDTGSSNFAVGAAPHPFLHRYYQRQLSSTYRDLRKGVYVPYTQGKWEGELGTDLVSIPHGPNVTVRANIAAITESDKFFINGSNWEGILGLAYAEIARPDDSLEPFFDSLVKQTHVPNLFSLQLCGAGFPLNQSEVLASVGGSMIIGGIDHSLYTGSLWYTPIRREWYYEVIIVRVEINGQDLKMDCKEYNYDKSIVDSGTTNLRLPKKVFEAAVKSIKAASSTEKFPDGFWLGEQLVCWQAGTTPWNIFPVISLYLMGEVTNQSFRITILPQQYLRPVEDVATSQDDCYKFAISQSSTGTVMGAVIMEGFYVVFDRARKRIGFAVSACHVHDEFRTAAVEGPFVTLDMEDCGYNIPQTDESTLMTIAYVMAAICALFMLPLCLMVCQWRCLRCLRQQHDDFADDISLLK

For `CN1CC(N)=NC(C)(c2cccc(-c3cncnc3)c2)C1=O` (racemic) [Compound 1, rac-5-amino-1,3-dimethyl-3-(3-pyrimidin-5-yl-phenyl)-3,6-dihydro-1H-pyrazin-2-one], the melting point (as a rule, the temperature, or range, at which the solid turns liquid) is 223.4 °C. Besides, the IC50 in the data set on Abeta 1-42 is 4.47 µM. In addition, the IC50 in the data set with Abeta total is 3.89 µM. Also, the IC50 on BACE1 is 20.4 µM.

Regarding `COc1cncc(-c2cccc(C3(C)N=C(N)CN(C)C3=O)c2)c1` (racemic) [Compound 2, rac-5-amino-3-[3-(5-methoxy-pyridin-3-yl)-phenyl]-1,3-dimethyl-3,6-dihydro-1H-pyrazin-2-one], the IC50 is 1.66 µM in the data set with Abeta 1-42, 1.51 µM in the data set on Abeta total and 10.5 µM on BACE1.

Take `CN1CC(N)=NC(C)(c2cccc(NC(=O)c3ccc(Cl)cn3)c2)C1=O` (racemic) [Compound 3, rac-5-chloro-pyridine-2-carboxylic acid [3-(6-amino-2,4-dimethyl-3-oxo-2,3,4,5-tetrahydro-pyrazin-2-yl)-phenyl]-amide]: the IC50 is 0.0646 µM in the data set with Abeta 1-42 and 0.0275 µM in the data set on Abeta total.

For `Cc1cnc(C(=O)Nc2cccc(C3(C)N=C(N)CN(C)C3=O)c2)cn1` (racemic) [Compound 6, rac-5-methyl-pyrazine-2-carboxylic acid [3-(6-amino-2,4-dimethyl-3-oxo-2,3,4,5-tetrahydro-pyrazin-2-yl)-phenyl]-amide], the IC50 was 1.26 µM in the data set on Abeta 1-42, 1.15 µM with Abeta total and 7.08 µM at BACE1.

`CCN1CC(N)=NC(C)(c2cc(-c3cncc(OC)c3)c(F)cc2F)C1=O` (racemic) [Compound 9, rac-5-amino-3-[2,4-difluoro-5-(5-methoxy-pyridin-3-yl)-phenyl]-1-ethyl-3-methyl-3,6-dihydro-1H-pyrazin-2-one] showed a melting point of 81.8 °C. For the same compound, the IC50 with Abeta 1-42 is > 10 µM. In addition, the IC50 in the data set on Abeta total was 9.12 µM. Further, the IC50 at BACE1 was > 30.2 µM.

For the compound `CN1CC(N)=NC(C)(c2cccc(NC(=O)c3ccc(Cl)cn3)c2)C1=O` (single isomer, unassigned) [Compound 4, (S*)-5-chloro-pyridine-2-carboxylic acid [3-(6-amino-2,4-dimethyl-3-oxo-2,3,4,5-tetrahydro-pyrazin-2-yl)-phenyl]-amide], the “Cellular αlisa assay in SKNBE2 cells Aβ42 pIC50” value with Abeta 1-42 is recorded as <5. In the data set with Abeta total, the “Cellular αlisa assay in SKNBE2 cells Aβtotal pIC50” value is on record as <5.

Regarding `CN1CC(N)=NC(C)(c2cccc(NC(=O)c3ccc(Cl)cn3)c2)C1=O` (single isomer, unassigned) [Compound 5, (R*)-5-chloro-pyridine-2-carboxylic acid [3-(6-amino-2,4-dimethyl-3-oxo-2,3,4,5-tetrahydro-pyrazin-2-yl)-phenyl]-amide], the “Cellular αlisa assay in SKNBE2 cells Aβ42 pIC50” value with Abeta 1-42 is reported as 7.44. Also, the “Cellular αlisa assay in SKNBE2 cells Aβtotal pIC50” value in the data set with Abeta total worked out at 7.43.

Source of the values: patent US20130079349A1 (JANSSEN PHARMACEUTICA NV, priority 2010, published 2013).
